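A five-concentration, 48-hour dose response in 96-well plates underlies each endpoint, interpolated linearly between surrounding concentrations. The concentration for full growth arrest is given as TGI.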
Assays:
Test in all cases: NCI-60 cell line screen, 48 h
LXFL 529 NSCLC = tested on: LXFL 529 NSCLC
SK-MEL-28 melanoma = tested on: SK-MEL-28 melanoma
HL-60(TB) leukemia = tested on: HL-60(TB) leukemia
RPMI-8226 leukemia = tested on: RPMI-8226 leukemia
XF 498 CNS = tested on: XF 498 CNS
K-562 leukemia = tested on: K-562 leukemia
HOP-92 NSCLC = tested on: HOP-92 NSCLC
OVCAR-3 ovarian = tested on: OVCAR-3 ovarian
SF-539 CNS = tested on: SF-539 CNS
OVCAR-4 ovarian = tested on: OVCAR-4 ovarian
SF-295 CNS = tested on: SF-295 CNS
TK-10 renal = tested on: TK-10 renal
IGROV1 ovarian = tested on: IGROV1 ovarian
SK-MEL-2 melanoma = tested on: SK-MEL-2 melanoma
UO-31 renal = tested on: UO-31 renal
HCT-15 colon = tested on: HCT-15 colon
KM20L2 colon = tested on: KM20L2 colon
CCRF-CEM leukemia = tested on: CCRF-CEM leukemia
CAKI-1 renal = tested on: CAKI-1 renal
UACC-62 melanoma = tested on: UACC-62 melanoma
NCI-H522 lung = tested on: NCI-H522 lung
HT29 colon = tested on: HT29 colon
SF-268 CNS = tested on: SF-268 CNS
786-0 renal = tested on: 786-0 renal
M19-MEL melanoma = tested on: M19-MEL melanoma
NCI-H23 lung = tested on: NCI-H23 lung
KM12 colon = tested on: KM12 colon
A549 NSCLC = tested on: A549 NSCLC
NCI-H460 lung = tested on: NCI-H460 lung
SW-620 colon = tested on: SW-620 colon
U251 CNS = tested on: U251 CNS
MALME-3M melanoma = tested on: MALME-3M melanoma
SNB-19 CNS = tested on: SNB-19 CNS
DMS 273 small cell lung = tested on: DMS 273 small cell lung
SNB-75 CNS = tested on: SNB-75 CNS
NCI-H226 lung = tested on: NCI-H226 lung
ACHN renal = tested on: ACHN renal
HCT-116 colon = tested on: HCT-116 colon
M14 melanoma = tested on: M14 melanoma
OVCAR-8 ovarian = tested on: OVCAR-8 ovarian
HOP-62 NSCLC = tested on: HOP-62 NSCLC
SR leukemia = tested on: SR leukemia
UACC-257 melanoma = tested on: UACC-257 melanoma
COLO 205 colon = tested on: COLO 205 colon
DLD-1 colon = tested on: DLD-1 colon
SK-MEL-5 melanoma = tested on: SK-MEL-5 melanoma
DMS 114 small cell lung = tested on: DMS 114 small cell lung
HCC-2998 colon = tested on: HCC-2998 colon
MOLT-4 leukemia = tested on: MOLT-4 leukemia
OVCAR-5 ovarian = tested on: OVCAR-5 ovarian

In the case of `COc1ccc(C(=O)Cc2c(C(=O)c3ccccc3)c3ccccc3n2C(=O)c2ccccc2)cc1`, the TGI (LXFL 529 NSCLC) is reported as greater than 100 µM, the TGI (SK-MEL-28 melanoma) is reported as greater than 100 µM and the TGI (HL-60(TB) leukemia) is reported as greater than 100 µM. The TGI (RPMI-8226 leukemia) was 70.9 µM, the TGI (XF 498 CNS) was greater than 100 µM and the TGI (K-562 leukemia) was greater than 100 µM. It also gave a TGI (HOP-92 NSCLC) greater than 100 µM, a TGI (OVCAR-3 ovarian) greater than 100 µM and a TGI (SF-539 CNS) greater than 100 µM. It also gave a TGI (OVCAR-4 ovarian) greater than 100 µM, a TGI (SF-295 CNS) greater than 100 µM and a TGI (TK-10 renal) greater than 100 µM. For the same compound, the TGI (IGROV1 ovarian) was greater than 100 µM, the TGI (SK-MEL-2 melanoma) was greater than 100 µM and the TGI (UO-31 renal) was greater than 100 µM. The TGI (HCT-15 colon) was greater than 100 µM, the TGI (KM20L2 colon) was greater than 100 µM and the TGI (CCRF-CEM leukemia) was greater than 100 µM. For the same compound, the TGI (CAKI-1 renal) was greater than 100 µM, the TGI (UACC-62 melanoma) was greater than 100 µM and the TGI (NCI-H522 lung) was greater than 100 µM. For the same compound, the TGI (HT29 colon) was greater than 100 µM, the TGI (SF-268 CNS) was greater than 100 µM and the TGI (786-0 renal) was greater than 100 µM. For the same compound, the TGI (M19-MEL melanoma) was greater than 100 µM, the TGI (NCI-H23 lung) was greater than 100 µM and the TGI (KM12 colon) was greater than 100 µM. For the same compound, the TGI (A549 NSCLC) was greater than 100 µM, the TGI (NCI-H460 lung) was greater than 100 µM and the TGI (SW-620 colon) was greater than 100 µM. For the same compound, the TGI (U251 CNS) was greater than 100 µM, the TGI (MALME-3M melanoma) was greater than 100 µM and the TGI (SNB-19 CNS) was greater than 100 µM. It also gave a TGI (DMS 273 small cell lung) greater than 100 µM, a TGI (SNB-75 CNS) of 99.6 µM and a TGI (NCI-H226 lung) greater than 100 µM. For the same compound, the TGI (ACHN renal) was greater than 100 µM, the TGI (HCT-116 colon) was greater than 100 µM and the TGI (M14 melanoma) was greater than 100 µM. It also gave a TGI (OVCAR-8 ovarian) greater than 100 µM, a TGI (HOP-62 NSCLC) greater than 100 µM and a TGI (SR leukemia) greater than 100 µM. For the same compound, the TGI (UACC-257 melanoma) was greater than 100 µM, the TGI (COLO 205 colon) was greater than 100 µM and the TGI (DLD-1 colon) was greater than 100 µM. For the same compound, the TGI (SK-MEL-5 melanoma) was 64.3 µM, the TGI (DMS 114 small cell lung) was greater than 100 µM and the TGI (HCC-2998 colon) was greater than 100 µM. The TGI (MOLT-4 leukemia) was greater than 100 µM and the TGI (OVCAR-5 ovarian) was greater than 100 µM.

Reference: PubChem BioAssay (NCI)
